This assay relates to Bombyx mori. As to the kind of experiment: Stimulation of transcription of acyl-CoA binding protein in pheromone gland of Silkmoth P50 at 0.2 mg after 18 hrs. Format: functional, organism-based.

SMILES strings stand for the structures. Activity calls are given as the source filed them. The rule behind the calls is not given here.

Turning to `N[C@H](Cc1ccc(O[C@@H]2O[C@H](CO)[C@H](O)[C@H](O)[C@H]2O)cc1)C(=O)O`, the result was inactive. The result for `N[C@H](Cc1ccc(O[C@H]2O[C@@H](CO)[C@H](O)[C@@H](O)[C@@H]2O)cc1)C(=O)O` reads “inactive”; that for `N[C@@H](Cc1ccc(O[C@H]2O[C@@H](CO)[C@H](O)[C@@H](O)[C@@H]2O)cc1)C(=O)O`, “inactive”. Regarding `N[C@H](Cc1ccc(OC2O[C@H](CO)[C@@H](O)[C@H](O)[C@H]2O)cc1)C(=O)O` (stereo not given in full), the result was inactive. In the case of `N[C@@H](Cc1ccc(O[C@@H]2O[C@H](CO)[C@H](O)[C@H](O)[C@H]2O)cc1)C(=O)O` it was “Active”.

Source of the values: ChEMBL document CHEMBL1144516, “Synthesis and biological activities of analogs of D-glucosyl-l-tyrosine, a humoral factor that stimulates transcription of the acyl-CoA binding protein in the pheromone gland of the Silkmoth, Bombyx mori” (Bioorg Med Chem, 2007).
